# “Also recorded” adds a separate entry of the source.
# Experiments:
# [1] = system: rat chronic constriction injury (CCI) model; assay: Mechanical allodynia (von Frey 50% paw withdrawal threshold), systemically administered fluocinolone, rat CCI model; type: in vivo
# Method: (§1) The purpose of this study is to evaluate the efficacy of fluocinolone acetonide (Sigma Cat# F8880-25MG; Sigma Aldrich, St. Louis, Mo.), a potent corticosteroid, to reduce neuropathic pain in an animal model. This animal model involves pain-associated behaviors in male Wistar rats (300-326 g) following chronic constriction injury (CCI) induced by a procedure similar to that described by Bennett and Xie (1988). Under 2% isoflurane anesthesia, the rat's common sciatic nerve is exposed and freed from adherent tissue at mid-thigh by separating the muscle (biceps femoris) by blunt dissection. Four loose ligatures are placed 1 mm apart, using chromic gut (4-0 absorbable suture, Jorgensen Laboratories, Inc. Loveland, Colo.).
# (§2) After CCI induction, each group (n=7) receive treatment via systemic injection. Vehicle control animals (Group 1) receive 1× phosphate buffered solution (PBS) intraperitoneally (IP) every three days, beginning the day of surgery (Day 0), etanercept (Group 2; 3 mg/kg) is administered IP every 3 days beginning Day 0. Animals in treatment Groups 3, 4 and 5 receive fluocinolone (0.5, 5, or 25 μg/kg) subcutaneously (SC) every day beginning Day 0.
# (§3) Mechanical allodynia is measured using von Frey monofilament test (Stoelting, Wood Dale, Ill.). The plantar surface of the CCI paw of each animal is tested as described by Chaplan et al. (1994). Each animal is placed in a suspended clear plastic chamber with a wire mesh bottom. Prior to testing, each animal is acclimated for 15 minutes. The 50% paw withdrawal threshold response is determined by sequentially increasing or decreasing the stimulus strength according to the “up-down method” of Dixon (1980).
# Testing begins with a filament with a buckling weight of 2.0 g and continued through a series of filaments applied in sequence, up to about 15 g. Each filament is applied with enough pressure to cause a buckle effect. The absence of a paw lifting/withdrawal response after 5 seconds prompts the use of the filament to the next higher weight. Paw withdrawal, indicates a positive response. The testing continues for four additional measurements and is used to calculate the response threshold. Four consecutive positive responses receive a score of 0.25 g, and five consecutive negative responses (i.e., no paw withdrawal) receives a score of 15 g. The mechanical paw withdrawal threshold of each animal is measured one day prior to surgery (per-surgical baseline) and on Days 8, 15, and 22.
# The 50% paw withdrawal threshold is calculated (PWT; Luo and Calcutt, 2002, Chaplan et al. 1994) using the formula 10 (Xf+?d)/10,000, where Xf is the final von Frey filament used (log units), ? is a value that analyzes the response pattern (taken from the table published by Chaplan at al., 1994), and d is the mean difference between stimuli (log units). Data is analyzed using one-way ANOVA on each test.
# [2] = system: rat chronic constriction injury (CCI) model; assay: Thermal hyperalgesia (paw withdrawal latency), systemically administered fluocinolone, rat CCI model; type: in vivo
# Method: as §1, §2
# (§4) Thermal hyperalgesia is measured using a plantar analgesia instrument (Stoelting, Wood Dale, Ill.). Prior to testing, each animal is placed on the plantar test apparatus, a clear plastic chamber, and is allowed to rest/acclimate for 15 minutes. A radiant (heat) beam stimulus is applied to the CCI paw of each animal. After paw withdrawal, an automated control interrupts both the stimulus and the timer. The heat source device is set at intensity 50, and a maximal cut-off at 15 seconds is set to prevent tissue damage. Thermal hyperalgesia paw withdrawal latency response of the injured site (right hind paw) of each animal is measured 2 days prior to CCI surgery (pre-injury baseline) on Days 7, 14, and 21 after surgery. Data from each test is analyzed by one-way ANOVA.
# [3] = Body weight gain during daily SC fluocinolone in CCI rats; type: in vivo, rat; conditions: for body weight difference to vehicle controls: 25 μg/kg SC daily
# Method: as §1, §2
# [4] = system: rat chronic constriction injury (CCI) model; assay: Von Frey mechanical threshold, local pump delivery, rat CCI model; type: in vivo; conditions: 0.0032, 0.016, 0.08 ng/hour by pump, each day tested; not statistically significant
# Method: as §3
# Testing begins with a filament with a buckling weight of 2.0 g and continued through a series of filaments applied in sequence, up to about 15 g. Each filament is applied with enough pressure to cause a buckle effect. The absence of a paw lifting/withdrawal response after 5 seconds prompts the use of the filament to the next higher weight. […] The mechanical paw withdrawal threshold of each animal is measured one day prior to surgery (per-surgical baseline) and on Days 8, 15, and 22.
# The 50% paw withdrawal threshold is calculated (PWT; Luo and Calcutt, 2002, Chaplan et al. 1994) using the formula 10 (Xf+?d)/10,000, where Xf is the final von Frey filament used (log units), ? is a value that analyzes the response pattern (taken from the table published by Chaplan at al., 1994), and d is the mean difference between stimuli (log units). Data is analyzed using one-way ANOVA on each test. […]
# [5] = system: rat chronic constriction injury (CCI) model; assay: Thermal paw withdrawal latency, local pump delivery, rat CCI model; type: in vivo; conditions: 0.0032, 0.016, and 0.08 ng/hour by osmotic mini-pump, perineural; p<0.05
# Method: as §4
# Following the above experiments, the efficacy of locally administered, low dose of fluocinolone acetonide (Sigma Cat# F8880-25MG; Lot# 043K1167, Sigma Aldrich) and dexamethasone (Sigma Aldrich) is examined in the same CCI rat model. […]
# Fluocinolone is administered at doses of 0.0032 ng/hour (0.02304 ng/kg/day), 0.016 ng/hour (0.1152 ng/kg/day), and 0.08 ng/hour (0.576 ng/kg/day). […] Thermal hyperalgesia, induced and measured as described above, is measured on Days −2, 7, 14, and 21. Mechanical allodynia, induced and measured as described above, is measured on Days −1, 8, 15, and 22.
compound,measurement,setting,value
"CC1(C)O[C@@H]2C[C@H]3[C@@H]4C[C@H](F)C5=CC(=O)C=C[C@]5(C)[C@@]4(F)[C@@H](O)C[C@]3(C)[C@]2(C(=O)CO)O1 [Fluocinolone, fluocinolone acetonide]","Von Frey Filament ""Allodynia"" Latencies as Percent of Baseline, Mean","[1]; 0.5 μg/kg every day, Day 8",45.2% of Baseline
same,"Von Frey Filament ""Allodynia"" Latencies as Percent of Baseline, Mean","[1]; 0.5 μg/kg every day, Day 15",47.1% of Baseline
same,"Von Frey Filament ""Allodynia"" Latencies as Percent of Baseline, Mean","[1]; 0.5 μg/kg every day, Day 22",66.2% of Baseline
same,"Von Frey Filament ""Allodynia"" Latencies as Percent of Baseline, Mean","[1]; 5 μg/kg every day, Day 8",54.8% of Baseline
same,"Von Frey Filament ""Allodynia"" Latencies as Percent of Baseline, Mean","[1]; 5 μg/kg every day, Day 15",57.5% of Baseline
same,"Von Frey Filament ""Allodynia"" Latencies as Percent of Baseline, Mean","[1]; 5 μg/kg every day, Day 22",55.2% of Baseline
same,"Von Frey Filament ""Allodynia"" Latencies as Percent of Baseline, Mean","[1]; 25 μg/kg every day, Day 8",76.3% of Baseline
same,"Von Frey Filament ""Allodynia"" Latencies as Percent of Baseline, Mean","[1]; 25 μg/kg every day, Day 15",68.9% of Baseline
same,"Von Frey Filament ""Allodynia"" Latencies as Percent of Baseline, Mean","[1]; 25 μg/kg every day, Day 22",70.3% of Baseline
same,mechanical allodynia compared with etanercept,"[1]; 0.5, 5, 25 μg/kg/day, not statistically significant",tend to improve mechanical allodynia over etanercept; also recorded: does not reveal any significant differences
same,mechanical allodynia compared with vehicle controls,"[1]; 0.5, 5, or 25 μg/kg/day SC, overall ANOVA",significantly improves (overall ANOVA) mechanical allodynia
same,"Thermal Paw Withdrawal Latencies as Percent Baseline, Mean","[2]; 0.5 μg/kg every day, Day 7",71.6 Percent Baseline
same,"Thermal Paw Withdrawal Latencies as Percent Baseline, Mean","[2]; 0.5 μg/kg every day, Day 14",70.8 Percent Baseline
same,"Thermal Paw Withdrawal Latencies as Percent Baseline, Mean","[2]; 0.5 μg/kg every day, Day 21",63.1 Percent Baseline
same,"thermal latency, t-test compared to etanercept","[2]; 0.5 μg/kg, Day 7, p<0.05",significant increase in latency on Day 7
same,"thermal latency, t-test compared to etanercept","[2]; 0.5 μg/kg, Days 14 and 21, n.s.",not on Days 14 and 21
same,thermal latencies compared with etanercept,"[2]; 0.5 μg/kg/day, only statistically significant on Day 7",tends to improve thermal latencies over etanercept
same,"Thermal Paw Withdrawal Latencies as Percent Baseline, Mean","[2]; 5 μg/kg every day, Day 7",79.7 Percent Baseline
same,"Thermal Paw Withdrawal Latencies as Percent Baseline, Mean","[2]; 5 μg/kg every day, Day 14",83.8 Percent Baseline
same,"Thermal Paw Withdrawal Latencies as Percent Baseline, Mean","[2]; 5 μg/kg every day, Day 21",80.2 Percent Baseline
same,"thermal latency, t-test compared to etanercept","[2]; 5 μg/kg, Days 7, 14, 21, p<0.05",significant increase in latency on all testing days
same,"Thermal Paw Withdrawal Latencies as Percent Baseline, Mean","[2]; 25 μg/kg every day, Day 7",67.4 Percent Baseline
same,"Thermal Paw Withdrawal Latencies as Percent Baseline, Mean","[2]; 25 μg/kg every day, Day 14",80.9 Percent Baseline
same,"Thermal Paw Withdrawal Latencies as Percent Baseline, Mean","[2]; 25 μg/kg every day, Day 21",80.0 Percent Baseline
same,thermal latency relative to vehicle controls,"[2]; 0.5, 5 and 25 μg/kg/day SC, Days 7, 14, 21, p<0.05",increase in thermal latency relative to vehicle controls; also recorded: significantly increases the paw withdrawal latency period; also recorded: significant increase in thermal latency
same,thermal hyperalgesia compared with etanercept,"[2]; 5 and 25 μg/kg/day, all days tested, etanercept 3 mg/kg IP every 3 days, ANOVA p<0.05",improves thermal hyperalgesia significantly greater than etanercept
same,"thermal latency, 5 μg/kg dose compared with 25 μg/kg dose","[2]; Day 7, Fisher LSD, p<0.05",significantly more effective than 25 μg/kg dose
same,"thermal latency, 5 and 25 μg/kg doses compared with 0.5 μg/kg dose","[2]; Days 14 and 21, Fisher LSD, p<0.05",significantly more effective than the 0.5 μg/kg dose
same,body weight gain compared with vehicle controls,[3]; 25 μg/kg SC daily for 21 days,significant decrease in body weight gain
same,body weight difference to vehicle controls,[3]; Day 5,~10 g
same,body weight difference to vehicle controls,[3]; by Day 22,~50 g
same,body weight gain,[3]; 0.5 or 5 μg/kg SC daily for 21 days,does not have any effect on body weight gain
same,mechanical threshold (von Frey),[4],increases in the mechanical threshold
same,thermal paw withdrawal latency compared to PBS,[5],increases in the thermal paw withdrawal latency tests compared to PBS

# Reference: US20080317805A1, “LOCALLY ADMINISTRATED LOW DOSES OF CORTICOSTEROIDS” (priority 2007, published 2008)
